For orientation: logP means a log measure of how a compound divides between an organic and an aqueous phase.

With `CCCCCCCCCCCCCCCC(=O)O`, the logP turned out to be 7.17.

The compound `CCCCC/C=C\C/C=C\CCCCCCCC(=O)O` displayed a logP of 7.05.

As to `CCCCCCCCCCCCCC(=O)O`, the logP is 6.11.

On to `CCCCC/C=C\C/C=C\C/C=C\C/C=C\CCCC(=O)O`, for which the logP came to 6.98.

`CC/C=C\C/C=C\C/C=C\CCCCCCCC(=O)O` returned a logP of 6.46.

Compound `CCCCCCCCCCCCCCCCCCCC(=O)O` returned a logP of 9.29.

In turn, `CC(C)OC(=O)c1ccccc1` returned a logP of 3.09.

Take `CCCCCCC/C=C\CCCCCCC(=O)O`: the logP was determined as 6.58.

`CCCCCCCCCCCCCCCCCC(=O)O` displayed a logP of 8.23.

On to `CCCCCCCC/C=C\CCCCCCCC(=O)O`, for which the logP is 7.64.

`CCCCCC(=O)O` yielded a logP of 1.87.

The values above are taken from the SangsterLogP compilation.
